What was measured:
Assay in all cases: inactivation of microorganisms in water, number of cells in supernatant
Type in all cases: cell-based
Bacillus cereus = settings: 10 ppm; pH 8; initial 9.5 × 10^4
Procedure: (§1) Each test microbe was inoculated to nutrient broth and cultured with shaking at the optimum temperature of the test microbe until the late logarithmic phase. From the microbe culture, the microbe was collected, and the collected microbe was washed with 1.5 mL of physiological saline 2 to 3 times (centrifugation at 13000 rpm for 1 minute) and suspended in 1.5 mL of physiological saline. From the suspension, a 1 mL aliquot was recovered, and this was added to 9 mL of sterile water, followed by sufficient stirring of the resulting suspension (this was used as 10^−1 dilution). From the 10^−1 dilution, 10^−2 to 10^−8 dilutions were sequentially prepared. Each dilution was smeared on a film medium (Sanita-kun; for E. coli and coliform bacteria, for Staphylococcus aureus, for Salmonella, for aerobic bacteria or for fungi: Chisso Corporation) in an amount of 1 mL, followed by culturing at the optimum temperature of the test microbe for 24 to 72 hours and measurement of the number of cells on the film medium.
(§2) To a sterilized beaker, 500 mL of sterilized water was placed, and 0.20 mL of microbe culture of 10^6 to 10^10 cells/mL was inoculated thereto, to attain an initial cell number of 10^3 to 10^7 cells/mL. Unless otherwise specified, the pH was 6 to 8. After stirring the suspension gently for 5 minutes, PGα21Ca (Nippon Poly-Glu Co., Ltd.) and/or a microbiostatic agent or microbicide was/were added thereto such that a predetermined final concentration(s) was/were attained. After gentle stirring at room temperature for 10 to 15 minutes, the suspension was left to stand for a predetermined length of time. The supernatant was collected and diluted appropriately in an antimicrobial agent-inactivating medium (BHI medium or the like), and 1 mL each of the resulting diluent was smeared on a film medium. Culturing was carried out at the optimum temperature of each test microbe for 24 to 72 hours and the number of cells (cells/mL) on the film medium was measured.

Bacillus subtilis = settings: 10 ppm; pH 8; initial 6.0 × 10^4
Procedure: as §1, §2

Escherichia coli = settings: 10 ppm; pH 8; initial 5.8 × 10^4
Procedure: as §1, §2

Klebsiella pneumoniae = settings: 10 ppm; pH 8; initial 1.3 × 10^5
Procedure: as §1, §2

Listeria monocytogenes = settings: 10 ppm; pH 8; initial 2.0 × 10^4
Procedure: as §1, §2

Pseudomonas aeruginosa = settings: 10 ppm; pH 8; initial 2.0 × 10^5
Procedure: as §1, §2

Salmonella choleraesuis = settings: 10 ppm; pH 8; initial 4.7 × 10^4
Procedure: as §1, §2

Staphylococcus aureus = settings: 10 ppm; pH 8; initial 4.3 × 10^4
Procedure: as §1, §2

protamine sulfate
number of cells 2 hours later (Bacillus cereus): 300 cells/mL
number of cells 2 hours later (Bacillus subtilis): 10 cells/mL
number of cells 2 hours later (Escherichia coli): <10 cells/mL
number of cells 2 hours later (Klebsiella pneumoniae): 10 cells/mL
number of cells 2 hours later (Listeria monocytogenes): <10 cells/mL
number of cells 2 hours later (Pseudomonas aeruginosa): <10 cells/mL
number of cells 2 hours later (Salmonella choleraesuis): <10 cells/mL
number of cells 2 hours later (Staphylococcus aureus): <10 cells/mL
